According to PMC10671498, “Antiproliferative and Cytotoxic Properties of Propynoyl Betulin Derivatives against Human Ovarian Cancer Cells: In Vitro Studies” (International Journal of Molecular Sciences, 2023):
pIC50: −log10 of the molar value. Read-outs that look alike come from different tables or passages of the source.

Key:
Format in all cases: cell-based, human
OVCAR-3 cells [1] = experiment: LDH release assay, OVCAR-3; settings: OVCAR-3, 24 h
Procedure: In order to evaluate the cytotoxic effect, the release of LDH into the culture medium using the In Vitro Toxicology Assay Kit, Lactic Dehydrogenase Based (TOX7; Sigma Aldrich) was assessed. SK-OV-3 and OVCAR-3 cells were plated and cultured in 96-well plates (Greiner Bio-One) at the initial density of 5 × 10^3 cells per well in 100 µL of culture medium. The density of the cells was determined in the same manner as in the SRB assay. After 24 h, the media were replaced with the working solutions, which contained appropriate test compounds at concentrations of 3 μM, 10 μM, 30 μM, and control medium (0.2% DMSO). Cells were exposed to the test substances for 24 h. The background control comprised wells without cells with only control medium. To determine the maximal LDH release (high control), half of the control cultures were treated with lysis buffer. Wells with untreated cells were used as the low control of the assay. LDH activity in media was assessed according to the manufacturer’s protocol. The absorbance was measured at wavelengths of 490 nm and 690 nm (background), and the percentage of released enzyme was calculated for cells growing in the presence of compounds according to the formula:Cytotoxicity [%] = [(AT − AL)/(AH − AL)] × 100 where AT is the absorbance of treated wells; AL is low control; and AH is high control (maximal LDH release).
Cytotoxicity was expressed as a percentage of the released LDH calculated according to the difference between the absorbance of the treated and low control wells divided by the difference between the absorbance of the high control and low control wells.

OVCAR-3 cells [2] = experiment: SRB cell proliferation assay, OVCAR-3; settings: for pIC50: Homo sapiens
Procedure: OVCAR-3 cells (ATCC No. HTB-161™) were cultured in RPMI-1640 medium containing HEPES buffer (2.383 g/L), sodium bicarbonate (1.5 g/L), sodium pyruvate (0.11 g/L) supplemented with 20% fetal bovine serum, 10 µg/mL bovine insulin, 100 U/mL penicillin, and 100 μg/mL streptomycin (all from Sigma Aldrich).
Betulin 1 and its derivatives were dissolved in dimethyl sulfoxide (DMSO; Sigma Aldrich) as a 15 mM stock solution. Working solutions were prepared through the dilution of stock solutions with culture medium. The final DMSO concentration in culture media was adjusted to 0.2%. The effect of tested compounds on the proliferation of SK-OV-3 and OVCAR-3 cells was measured using the In Vitro Toxicology Assay Kit, Sulforhodamine B based (Sigma Aldrich). Cells were seeded in 96-well plates (Greiner Bio-One, Kremsmünster, Austria) at an initial density of 3 × 10^3 cells per well in 200 µL of culture medium. After 24 h of incubation, betulin 1 and its derivatives at a concentration range of 0.1 μM to 30 μM were added to the wells. Control cultures were treated with vehicle alone (0.2% DMSO). The incubation periods for cells with test compounds were 1 day, 3 days, and 5 days. After appropriate incubation periods, culture media were removed, and cells were fixed in 10% trichloroacetic acid solution for 60 min at 4 °C. After fixation, the TCA solution was removed, and the plates were washed three times with deionized water (300 μL/well) and dried. At the next step, cells were stained with 0.4% sulforhodamine B for 30 min. The excess dye was removed by washing three times with 1% (vol/vol) acetic acid. The protein-bound dye was dissolved in 200 μL 10 mM Tris base solution. Absorbance was measured at 570 nm and 690 nm (reference wavelength) using the MRX Revelation plate reader (Dynex Technologies, Chantilly, VA, USA).
GraphPad Prism 10.0.2 (GraphPad Software Inc., San Diego, CA, USA) software was used for calculations and the statistical analysis of the IC50 values (Table 1). IC50 was determined by using the “nonlinear regression” mode, and the “log(inhibitor) vs. normalised response—Variable slope” equation was chosen in GraphPad Prism software for calculations. The obtained data were normalized to run from 100% down to 0%, and logarithms of concentration were used. Graphs (Figure 2, Figure 3, Figure 4, Figure 5 and Figure 8, and Supplementary Figure S1) were also prepared using this software. In the case of the lack of normal distribution or homogeneity of variances, the remaining results were analyzed using a non-parametric Kruskal–Wallis test with multiple comparisons. Post hoc analysis was performed with the non-parametric equivalent of Tukey’s test. A p value of <0.05 was considered statistically significant. Otherwise, a one-way ANOVA followed by a Tukey’s post hoc test was applied. t-tests was used to perform pairwise comparisons between group means. Analysis was performed using Statistica 13.1 software (StatSoft, Tulsa, OK, USA).

SK-OV-3 cells = experiment: DNA fragmentation assay (Cell Death Detection ELISA, cytoplasmic fraction), SK-OV-3; settings: for DNA fragmentation (enrichment factor, internucleosomal DNA fragments): SK-OV-3, 24 h, 3, 10, 30 µM
Procedure: (§1) Fragmentation of genomic DNA was determined by means of the Cell Death Detection ELISAPLUS kit (Roche, Basel, Switzerland). This method rests on the immunoenzymatic detection of DNA–histone complexes in the cytoplasmic cell fraction or cell culture supernatants. Cells were plated and cultured in 96-well plates (Greiner Bio-One) at the initial density of 5 × 10^3 cells per well in 100 µL of culture medium. Cells were allowed to attach and grow for 1 day prior to the addition of test reagents. Then, the media were replaced with the working solutions (3 µM, 10 µM, 30 µM), and cells were exposed to compounds 2–6 for 24 h. In some cases, 5 µM cyclosporin A (CsA, an inhibitor of the mitochondrial permeability transition) was added to the cells 30 min before treatment with the betulin derivative. Subsequently, cells were incubated concomitantly with both compounds. After a 24 h incubation period, plates were centrifuged (200× g; 10 min), media were removed, and cells were lysed for 30 min at room temperature. At the next step, the lysates were again spun (200× g; 10 min), and 20 µL of supernatants (cytoplasmic fractions) was moved to the new 96-well streptavidin-coated plate. In one experiment, the presence of mono- and oligonucleosomes was determined in 20 µL samples of centrifuged culture supernatants (media) to detect the permeability of plasma membrane (considered as an indicator of cell necrosis). Then, the sandwich ELISA assay was fulfilled according to the manufacturer’s protocol. Absorbance was measured at 405 nm and 490 nm (reference wavelength), and the enrichment factor of the cytoplasmic (or supernatant) fraction in mono- and oligonucleosomes was calculated according to the formula: EF = absorbance of sample cells/absorbance of control cells.
(§2) A high EF index in the cytoplasmic fraction (resulting from DNA fragmentation while maintaining the tightness of cell membranes) is a typical indicator of the relatively early stage of apoptosis.

OVCAR-3 cells [3] = experiment: DNA fragmentation assay (Cell Death Detection ELISA, cytoplasmic fraction), OVCAR-3; settings: OVCAR-3, 24 h; for DNA fragmentation (number of mono- and oligonucleosomes): 3 µM and 10 µM
Procedure: as §1, §2

Compound	cytotoxicity (released LDH), loss of cell membrane integrity (OVCAR-3 cells [1]; 30 µM)	pIC50 (OVCAR-3 cells [2]; 72 h, OVCAR-3, 3 days treatment, SRB assay, read-out: IC50)	pIC50 (OVCAR-3 cells [2]; 120 h, OVCAR-3, 5 days treatment, SRB assay, read-out: IC50)	DNA fragmentation (enrichment factor, internucleosomal DNA fragments) (SK-OV-3 cells)	DNA fragmentation (number of mono- and oligonucleosomes) (OVCAR-3 cells [3])	DNA fragmentation (enrichment factor) (OVCAR-3 cells [3]; 30 µM)	cytotoxicity (released LDH) (OVCAR-3 cells [1]; all concentrations (3, 10, 30 μM))	pIC50 (OVCAR-3 cells [2]; OVCAR-3, 72 h)	pIC50 (OVCAR-3 cells [2]; OVCAR-3, 120 h)	concentration at which antiproliferative activity (decrease in the number of cells) was evident (OVCAR-3 cells [2]; OVCAR-3, SRB assay, 0.1–30 µM)	effect of CsA on compound-induced cell death, DNA fragmentation (SK-OV-3 cells; SK-OV-3, 24 h, with 5 µM cyclosporin A added 30 min before)
C=C(C)[C@@H]1CC[C@]2(CO)CC[C@]3(C)[C@H](CC[C@@H]4[C@@]5(C)CC[C@H](O)C(C)(C)[C@@H]5CC[C@]43C)[C@@H]12 [Compound 1, lup-20(29)-ene-3β,28-diol, reference compound]	loss of cell membrane integrity was also confirmed	5.04	5.00	significant increase	comparable to the control	caused an increase in DNA fragmentation					
C#CC(=O)OC[C@]12CC[C@@H](/C(C)=C/P(=O)(OCC)OCC)C1C1CCC3[C@@]4(C)CC[C@H](O)C(C)(C)C4CC[C@@]3(C)[C@]1(C)CC2 (stereo partly shown) [Compound 6, E-29-diethoxyphosphoryl-28-O-propynoylbetulin]				moderate increases	slightly smaller effect than the lowest concentration of compound 4		significant cytotoxic activity	6.17	6.23	1 µM	almost completely prevented
